The subject of one assay is MC38 tumors. Nature of the assay: MC38 flank tumor model, single intravenous dose. It counts as in vivo, mouse. The settings on record: for tumor burden: MC38, single iv dose day 7: LND 1 5 nmol CDN, parent CDN 5 or 100 nmol, ADU-S100 100 nmol. On the procedure:
Specifically, a single intravenous injection of LND 1 prepared as described in Example 3 was compared to intravenous injection of parent CDN for effects on tumor growth in a mouse model of colon adenocarcinoma. Tumors were established in 8-10 week old C57BL/6 mice by inoculating the right flank with a subcutaneous injection of 5x10^5 MC38 cells suspended in PBS. On day 7 post-inoculation, the mice were administered an intravenous injection of either parent CDN or LND-formulated CDN at a dose of 5 nmol CDN. Tumor area was measured on days 7, 10, and 12 and compared to untreated mice that received an intratumoral injection of PBS on day 7. The mice were then sacrificed on day 13, and excised tumors were weighed.
Mice were inoculated with MC38 tumors as described above. On day 7 post tumor inoculation, mice were administered a single intravenous injection of parent CDN at a dose of 5 nmol (n=5) or 100 nmol (n=10), ADU-S100 at a dose of 100 nmol (n=10), or LND 1 at a dose of 5 nmol CDN (n=20). Following administration, tumor growth and animal survival was monitored and compared to untreated mice that received an injection of PBS.
It was further investigated whether intravenous administration of LND-formulated CDN was effective in treating well-established MC38 tumors. Specifically, MC38 tumors were allowed to grow for 10 days post-inoculation (mean size of about 45 mm^2), whereupon a single intravenous dose of LND 1 was administered (5 nmol CDN). Control mice were administered PBS only. […] Though mice administered LND-formulated CDN experience some weight loss (about 10% body weight), they recovered full body weight within about 5 days of administration (data not shown).
Systemic administration of LND or liposome particles comprising CDN-PEG-Lipid was compared in the MC38 tumor model. […] The effect on tumor area and survival was evaluated and compared to untreated mice receiving an injection of PBS alone. Tumor size was measured by area (longest dimension x perpendicular dimension) and the mice were euthanized when the tumor area exceeded 150 mm^2 or tumor ulceration became severe.

The test system of another assay is 4T1-Luc tumor. Nature of the assay: Orthotopic 4T1 tumor model, single intravenous dose. It counts as in vivo, mouse. The settings on record: 4T1 orthotopic, single iv day 7: LND 1 10 nmol CDN; parent CDN 200 nmol. On the procedure:
To evaluate therapeutic efficacy in the aggressive 4T-1 orthotopic tumors, BALB/c mice were inoculated with 5 x 10^5 4T1-Luc tumor cells that were injected into the fourth mammary fat-pad. At 7 days post tumor inoculation, mice were administered CDN formulated as LND 1 at a dose of 10 nmol CDN or parent CDN at a dose of 200 nmol CDN per mouse by intravenous injection. Control mice were administered PBS only.

`Nc1ncnc2c1ncn2[C@@H]1O[C@@H]2COP(O)(=S)O[C@@H]3C(O)[C@@H](COP(O)(=S)O[C@H]2[C@H]1O)O[C@H]3n1cnc2c(N)ncnc21` (stereo partly shown) [ADU-S100, dithio-(Rp, Rp)-[cyclic[A(2′,5′)pA(3′,5′)p]], reference compound]: the tumor burden entry in the assay with MC38 tumors is recorded as “no reduction of tumor burden”.

With `CCN(CC)CC.Nc1nc2c(ncn2[C@@H]2O[C@@H]3COP(=O)(S)O[C@H]4[C@H]5OC[C@]4(COP(=O)(O)O[C@@H]2[C@@H]3O)O[C@H]5n2cnc3c(N)ncnc32)c(=O)[nH]1` (stereo partly shown) [parent CDN], the “tumor growth and survival” value in the assay with 4T1-Luc tumor is reported as “no impact on tumor growth or overall survival”. Further, the “tumor area and mass” value with MC38 tumors (MC38, single iv 5 nmol CDN on day 7, area days 7-12, weight day 13, vs untreated) is “no effect”. In addition, the tumor burden entry with MC38 tumors was “no reduction of tumor burden”.

Source of the values: US20230149560A1, “LIPID COMPOSITIONS FOR DELIVERY OF STING AGONIST COMPOUNDS AND USES THEREOF” (priority 2020, published 2023).
